Source: patent US7488491B2, “Use of glycosylceramides as adjuvants for vaccines against infections and cancer” (New York University, priority 2001, dated 2009)
Entries after “also recorded” stand apart in the source; their conditions may differ.

What was measured:
[1] = test system: P. berghei; conditions: mice; α-GalCer alone; cited from earlier work
[2] = test system: B 16-bearing mice; conditions: cited from earlier work
[3] = test system: P. yoelii sporozoites; experiment: Parasite rRNA in the liver after live sporozoite challenge of immunized mice (real-time RT-PCR)
[4] = test system: P. yoelii sporozoites; experiment: Protection against blood infection (parasitemia in thin blood smears) after challenge with 50 viable sporozoites
From the text: To further assess the adjuvant activity of α-GalCer co-administered with vaccines, parasitemia (i.e., the presence of parasites in the blood) was monitored daily by microscopic examination of thin blood smears. Briefly, BALB/c mice were immunized either intravenously with 1×10^4 γ-spz or subcutaneously with 1×10^7 p.f.u. of AdPyCS, doses which otherwise fail to confer protection against malaria, with or without α-GalCer treatment. Two weeks later, all mice were challenged with 50 viable P. yoelii sporozoites, and determined the occurrence of blood infection by monitoring parasitemia.
To determine the adjuvant effect of α-GalCer on the duration of protection against malaria, parasitemia (i.e., the presence of the parasites in the blood) was monitored daily via microscopic inspection of thin blood smears in two separate experiments. In experiment 1, two groups of mice, one treated with α-GalCer and the other untreated, were immunized with 1×10^4 γ-spz, a dose that fails to confer protection against malaria 2 weeks after immunization. Two weeks later, all mice were challenged with 50 viable P. yoelii sporozoites, and the occurrence of blood infection was determined by monitoring parasitemia. In experiment 2, two groups of mice, one treated with α-GalCer and the other untreated, were immunized with 1×10^5 γ-spz, a dose that induces complete protection 2 weeks after immunization but not 4 weeks after. Four weeks later, these immunized mice, as well as naive controls were challenged with 50 live sporozoites, and the course of infection was determined as described above.

[5] = test system: P. yoelii sporozoites; experiment: Anti-sporozoite antibody titers by indirect immunofluorescence assay (IFA); format: in vivo, Plasmodium yoelii; conditions: γ-spz-immunized BALB/c mice
Method: Sera of immunized mice were obtained just before their challenge with sporozoites, and their Ab titers were measured using P. yoelii sporozoites in an indirect immunofluorescence assay (IFA). In brief, P. yoelii sporozoites were placed on multispot glass slides, and air-dried. After 1 hour of incubation with the sera, diluted in PBS containing 1% BSA, the slides were washed with PBS and incubated 1 hour with FITC- labelled affinity purified goat anti-mouse Ab (Kirkegaard & Perry Laboratories, Gaithersburg, Md.). The slides were then washed and mounted in PBS containing 50% (v/v) glycerol and 1% (w/v) Evans blue to reduce bleaching. The highest serum dilution resulting in fluorescence of the sporozoites was considered to be the IFA titer. Measurement of Ab Isotype Level by ELISA.
(§1) The present inventors also determined the titers of anti-sporozoite antibodies using an immunofluorescence assay(IFA) of air-dried P. yoelii sporozoites, as well as the titers of antibody against the circumsporozoite (CS) protein, the major surface antigen of sporozoites, using ELISA. The antibody titers were identical among the groups of γ-spz-immunized mice regardless of whether or not they received α-GalCer (FIG. 1A).

[6] = independently of dosage; cited from earlier work
[7] = in vivo; cited from earlier work
[8] = mouse, in vivo; cited from earlier work
[9] = test system: nucleoprotein (NP) of the influenza A virus; experiment: CD8+ T cell anti-influenza response after recombinant Sindbis virus expressing NP epitope; format: in vivo; conditions: suboptimal dose (10^5 p.f.u.) recombinant Sindbis virus expressing epitope TYQRTRALV, with α-GalCer
From the text: In yet another specific embodiment, an antigen of the invention is influenza A virus-specific.

[10] = test system: P. yoeli; conditions: α-GalCer alone, cited from earlier work
[11] = test system: p18-specific CD8+ T cells (p18 protein of HIV); experiment: ELISPOT assay of HIV p18-specific CD8+ T cells from immunized mice; conditions: mice immunized with CD8+ T cell epitope […] of p18 of HIV
Method: An ELISPOT assay was performed to determine the number of CS-specific CD4+ and CD8+ T cells, producing IFN-γ or IL-4 (Miyahira et al., J. Immunol. Methods, 181: 45-54, 1995). Briefly, 96 well nitrocellulose plates (Millipore, Bedford, Mass.) were coated with anti-mouse IFN-γ monoclonal antibodies (mAb), or anti-mouse IL-4 mAb. After overnight incubation at room temperature, the wells were washed repeatedly and blocked with culture medium for 1 hour at 37° C. […] After irradiating the peptide-pulsed target cells, the cells were added to the ELISPOT wells. Untreated target cells were used as negative controls. Serially diluted lymphocytes isolated from the spleen or lymph nodes of immunized mice were co-cultured with 1.5×10^5 target cells in the ELISPOT wells. After incubating the plates 24 h for IFN-γ detection or 48 h for IL-4 detection at 37° C. and 5% CO2, the plates were treated as previously described (Rodrigues et al., J. Immunol., 158: 1268-1274, 1997), and the number of spots corresponding to IFN-γ and IL-4 secreting cells determined.

[12] = test system: circumsporozoite (CS) protein; experiment: Anti-CS antibody titers and isotypes by ELISA; format: in vivo, P. yoelii; conditions: γ-spz-immunized mice
Method: Sera of immunized mice were obtained prior to their challenge with sporozoites, and the levels of CS-specific IgM, IgG1, IgG2a, and IgE isotypes were measured using the Mouse Hybridoma Subtyping Kit (Boehringer Mannheim, Mannheim, Germany). Briefly, plates were coated with […] of B cell epitope (QGPGAP)2 (Charoenvit et al., J. Immunol., 146: 1020-1025, 1991) of the P. yoelii CS protein, blocked with PBS containing 1% BSA, and incubated for 1 hour with 1:5 dilution of sera from immunized and non-immunized mice. The plates were then washed and anti-mouse IgM, IgG1a, IgG2a (Boehringer Mannheim) and IgE (Southern Biotechnology Associates, Inc., Birmingham, Ala.) conjugated to peroxidase were added, followed by incubation with the substratre 2,2-Azino-di-[3-ethylbenzthiazoline sulfonate (6)], according the manufacture's instruction.
as §1

[13] = independently of dosage; cited from earlier work; remark: listed apart in the source
[14] = test system: Vα14 NKT cells; conditions: mice; cited from earlier work
[15] = BALB/c mice, 2 μg α-GalCer, 1×10^4 γ-spz i.v.
[16] = BALB/c mice, i.v. 1 × 10^4 γ-spz or s.c. 1 × 10^7 p.f.u. AdPyCS, with or without α-GalCer, challenge with 50 viable P. yoelii sporozoites two weeks later

## CCCCCCCCCCCCCCCCCCCCCCCCCC(=O)N[C@@H](CO[C@H]1O[C@H](CO)[C@H](O)[C@H](O)[C@H]1O)[C@H](O)[C@H](O)CCCCCCCCCCCCCC [α-GalCer, (2S,3S,4R)-1—O-(α-D-galactopyranosyl)-2-(N-hexacosanoylamino)-1,3,4-octadecanetriol]
[1]
  anti-malaria activity (inhibition of intra-hepatocytic stages), P. berghei: strong anti-malaria activity
[2]; 100 μg/kg KRN7000
  mice bearing tumors cured: 60%
[2]; B 16-bearing mice
  antimetastatic activities vs OK432, Lentinan and Mitomycin C: stronger antimetastatic activities
[3]; BALB/c mice, 2 μg α-GalCer with 1×10^4 γ-spz i.v., challenge 1×10^4 live sporozoites two weeks later
  parasite load in the livers, times smaller than with γ-spz alone: 10 times
[3]; [15]
  level of protective anti-malaria immunity, α-GalCer on the same day as γ-spz: highest level of protective anti-malaria immunity
  level of protective immunity, α-GalCer two days after γ-spz immunization: did not significantly enhance
  protective immunity, α-GalCer two days prior to γ-spz immunization: completely abolished; also recorded: almost completely abolishes
[3]; BALB/c mice, s.c. sub-optimal dose AdPyCS with α-GalCer same day
  protection augmented relative to control, AdPyCS: ~10 times
[3]; BALB/c mice, s.c. sub-optimal dose SIN(Mal) with α-GalCer same day
  protection enhanced, SIN(Mal): 3 times
[3]; CD1d-deficient mice, BALB/c background, 1×10^4 γ-spz with α-GalCer
  γ-spz-induced protective immunity in CD1d-deficient mice: failed to enhance
[3]; Jα281-deficient mice (lack Vα14 NKT cells), 1×10^4 γ-spz with α-GalCer
  γ-spz-induced protective immunity in Jα281-deficient mice: failed to enhance
[4]; 1×10^4 γ-spz, challenge with 50 viable sporozoites two weeks later
  α-GalCer-treated, sporozoite-immunized mice protected, experiment 1: nine out of ten
[4]; 1×10^5 γ-spz, challenge with 50 live sporozoites four weeks later
  α-GalCer-treated, sporozoite-immunized mice protected, experiment 2: nine out of ten
[4]; [16]
  % protection (no parasitemia): 0%
  Number of mice protected/number challenged: 0/30
[4]; BALB/c, 1×10^4 γ-spz i.v., challenge 50 viable sporozoites two weeks later
  α-GalCer-treated, γ-spz-immunized mice protected: 28 out of 30
[4]; BALB/c, 1×10^7 p.f.u. AdPyCS s.c., challenge 50 viable sporozoites
  protective effect of sub-optimal dose of AdPyCS with α-GalCer: strongly enhanced
[4]; BALB/c, no immunogen, challenge 50 viable sporozoites
  protection by α-GalCer alone: failed to protect
[5]
  titers of anti-sporozoite antibodies (IFA), α-GalCer vs no α-GalCer: identical
[6]
  toxicity in rodents: does not induce toxicity
[7]
  complications in human trials: without a notable complication
[8]
  liver enzyme activities: transient elevation of liver enzyme activities
[9]
  CD8+ T cell anti-influenza response: significantly enhances
[10]; mice
  anti-malaria activity (inhibition of intra-hepatocytic stages), P. yoeli: strong anti-malaria activity
[10]
  parasite development in the liver of mice lacking either IFN-γ or the IFN-γ receptor: unable to inhibit parasite development
  parasites in the liver, α-GalCer two days prior to challenge with live sporozoites: completely eliminates the parasites from the liver
  protection against malaria in mice lacking either CD1d or Vα14 NKT cells: failed to protect
[11]
  level of HIV-specific CD8+ T cell response vs immunized without α-GalCer: ~3 times
[12]
  IgE, IgG1, IgG2a or IgM isotype profiles of anti-CS antibodies, α-GalCer-treated vs untreated: no significant differences
  titers of antibody against the CS protein (ELISA), α-GalCer vs no α-GalCer: identical
[13]
  toxicity in monkeys: does not induce toxicity

## CCCCCCCCCCCCCCCCCCCCCCCCCC(=O)N[C@@H](COC1OC(COC2OC(CO)C(O)C(O)C2O)C(O)C(O)C1O)[C@H](O)[C@H](O)CCCCCCCCCCCCCC (stereo partly drawn) [Galα1-6Galα1-1′Cer, (2S,3S,4R)-2-amino-1—O-(α-D-galactopyranosyl-(1-6)-α-D-galactopyranosyl)-N-hexacosanoyl-1,3,4-octadecanetriol]
[14]
  proliferation of Vα14 NKT cells, compared with α-GalCer: stimulate proliferation of Vα14 NKT cells in mice, although with lower efficiency

## CCCCCCCCCCCCCCCCCCCCCC[C@@H](O)C(=O)N[C@@H](COC1OC(CO)C(O)C(O)C1OC1OC(CO)C(O)C(O)C1O)[C@H](O)[C@H](O)CCCCCCCCCCCCCC (stereo partly drawn) [Galα1-2Galα1-1′Cer, (2S,3S,4R)-2-amino-1-O-(α-D-glucopyranosyl-(1-2)-α-D-galactopyranosyl)-N-[(R)-2-hydroxytetracosanoyl]-1,3,4-octadecanetriol]
[14]
  proliferation of Vα14 NKT cells, compared with α-GalCer: stimulate proliferation of Vα14 NKT cells in mice, although with lower efficiency

## CCCCCCCCCCCCCCCCCCCCCCCCCC(=O)N[C@@H](CO[C@H]1O[C@H](CO)[C@@H](O)[C@H](O)[C@H]1O)[C@H](O)[C@H](O)CCCCCCCCCCCCCC [α-GlcCer, (2S,3S,4R)-1—O-(α-D-glucopyranosyl)-N-hexacosanoyl-2-amino-1,3,4-octadecanetriol]
[14]
  proliferation of Vα14 NKT cells, compared with α-GalCer: stimulate proliferation of Vα14 NKT cells in mice, although with lower efficiency

## CCCCCCCCCCCCCCCCCCCCCC[C@@H](O)C(=O)N[C@@H](COC1OC(CO)C(O)C(OC2OC([C@H](O)CO)C(O)C2O)C1O)[C@H](O)[C@H](O)CCCCCCCCCCCCCC (stereo partly drawn) [Galβ1-3Galα1-1′Cer, (2S,3S,4R)-2-amino-1-O-(β-D-galactofuranosyl-(1-4)-α-D-galactopyranosyl)-N-[(R)-2-hydroxytetracosanoyl]-1,3,4-octadecanetriol]
[14]
  proliferation of Vα14 NKT cells, compared with α-GalCer: stimulate proliferation of Vα14 NKT cells in mice, although with lower efficiency
